What is called IC50 is the concentration at which inhibition is half-maximal.

The target in one assay is T1, full length MALT1 enzyme (Homo sapiens, UniProt Q9UDY8).
T1 construct: a fluorescence based assay with full length MALT1 enzyme
T1 sequence (Q9UDY8 1-824): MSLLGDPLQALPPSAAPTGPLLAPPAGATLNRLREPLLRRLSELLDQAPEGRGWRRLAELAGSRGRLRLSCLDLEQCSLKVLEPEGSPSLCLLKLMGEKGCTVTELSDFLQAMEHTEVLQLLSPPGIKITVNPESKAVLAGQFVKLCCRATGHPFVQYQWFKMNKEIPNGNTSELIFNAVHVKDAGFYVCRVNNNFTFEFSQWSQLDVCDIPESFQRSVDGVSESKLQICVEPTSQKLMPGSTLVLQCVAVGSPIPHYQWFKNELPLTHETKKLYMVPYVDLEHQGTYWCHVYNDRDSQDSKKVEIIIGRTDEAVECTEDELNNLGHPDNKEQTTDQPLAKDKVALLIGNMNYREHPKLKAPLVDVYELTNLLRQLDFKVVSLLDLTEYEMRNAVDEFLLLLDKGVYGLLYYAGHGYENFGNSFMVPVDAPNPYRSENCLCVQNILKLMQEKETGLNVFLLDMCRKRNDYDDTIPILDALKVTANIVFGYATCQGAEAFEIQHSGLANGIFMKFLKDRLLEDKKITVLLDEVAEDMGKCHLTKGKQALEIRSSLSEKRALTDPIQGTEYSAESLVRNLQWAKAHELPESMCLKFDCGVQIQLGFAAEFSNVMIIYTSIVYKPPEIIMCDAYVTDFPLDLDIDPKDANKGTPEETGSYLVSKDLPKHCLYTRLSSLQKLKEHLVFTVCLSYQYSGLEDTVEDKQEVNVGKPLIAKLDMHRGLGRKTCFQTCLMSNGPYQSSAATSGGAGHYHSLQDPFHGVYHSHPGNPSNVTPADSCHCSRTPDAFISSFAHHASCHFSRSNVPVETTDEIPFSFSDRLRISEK
The experiment in a line: MALT1 biochemical assay (fluorescence based, Ac-Leu-Arg-Ser-Arg-AMC cleavage). To be noted: full length MALT1 protein, 2 h pre-incubation at RT, tetrapeptide substrate Ac-Leu-Arg-Ser-Arg-AMC, read-out: Malt 1 inhibition IC50. The method, boiled down: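 Full-length MALT1 (100-300 ng/well) was pre-incubated with compound for 2 h at RT, then 100 μM Ac-LRSR-AMC was added for 4-12 h. Buffer was 50 mM MES, 150 mM NaCl, 0.1% CHAPS, 1 M ammonium citrate, 10 mM DTT, pH 7, with 0.5% DMSO. IC50 was derived from AMC fluorescence (ex 360/em 460 nm).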

Assay [1] deals with NF-kB transcriptional activity in HEK-293-NF-kB-Luc cell line overexpressing MALT1. The experiment in a line: NF-kB reporter assay (luciferase, MALT1 stably overexpressed). The assay is classed as cell-based. To be noted: Homo sapiens, 24 h, HEK-293-NF-kB-Luc cells stably overexpressing MALT1, 24 h treatment, Bright Glo luminescence; read-out: NF-kB inhibition IC50. Summed up: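 HEK-293-NF-κB-Luc cells stably overexpressing MALT1 were seeded overnight, then exposed to test compounds for 24 h. Bright Glo added 10 min at ambient temperature and luminescence read; % inhibition calculated against 0.1% DMSO controls.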
Background: A reporter such as luciferase makes a cellular process visible.

Another assay deals with OCI-Ly-10 cells. The experiment in a line: Anticancer assay (14 days), cell viability by CCK-8. The assay is classed as cell-based. Conditions: Homo sapiens, OCI-Ly10, 336 h, 14 days treatment, fresh treatment every 5th day, CCK-8 viability, read-out: Ly-10 (14d) inhibition IC50. The method, boiled down:
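OCI-Ly-10 cells in IMDM + 20% FBS exposed to compound for 13–15 days, with media and compound refreshed every 5th day. Viability by CCK-8 absorbance at 450 nm (650 nm background); % inhibition versus 0.1% DMSO medium control.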

For `COC(c1c(NC(=O)Nc2ccc(-n3nccn3)c(Cl)c2)cnc2sc(C)nc12)C1CC1` (single isomer, unassigned) [Compound 144b, 1-(3-Chloro-4-(2H-1,2,3-triazol-2-yl)phenyl)-3-(7-(cyclopropyl(methoxy)methyl)-2-methylthiazolo[5,4-b]pyridin-6-yl)urea], the 50% inhibitory concentration (IC50) lay within 1 to 50 nM at full length MALT1 enzyme, 1 to 100 nM in assay [1] and 0.1 to 25 nM in the assay with OCI-Ly-10 cells.
In the same order, the values of `Cc1nc2c(C3=CCCCC3)c(NC(=O)Nc3cnc(-n4nccn4)c(Cl)c3)cnc2s1` [Compound 59, 1-(5-Chloro-6-(2H-1,2,3-triazol-2-yl)pyridin-3-yl)-3-(7-(cyclohex-1-en-1-yl)-2-methylthiazolo[5,4-b]pyridin-6-yl)urea] are 1 to 50 nM, 101 to 500 nM and 26 to 100 nM.
In the same order, the values of `COC(C)(C)c1c(NC(=O)Nc2cnc(-n3nccn3)c(C(F)(F)F)c2)cnc2sc(C)nc12` [Compound 96, 1-(6-(2H-1,2,3-Triazol-2-yl)-5-(trifluoromethyl)pyridin-3-yl)-3-(7-(2-methoxypropan-2-yl)-2-methylthiazolo[5,4-b]pyridin-6-yl)urea] are 1 to 50 nM, 1 to 100 nM and 0.1 to 25 nM.
On to `Cc1nc2c(C3(CF)CC3)c(NC(=O)Nc3ccc(-n4nccn4)c(Cl)c3)cnc2s1` [Compound 107, 1-(3-Chloro-4-(2H-1,2,3-triazol-2-yl)phenyl)-3-(7-(1-(fluoromethyl)cyclopropyl)-2-methylthiazolo[5,4-b]pyridin-6-yl)urea], for which the results for the IC50 (on full length MALT1 enzyme; in assay [1]; in the assay with OCI-Ly-10 cells) were 1 to 50 nM, 1 to 100 nM and 101 to 250 nM, respectively.
In the same order, the values of `Cc1nc2c(C(C)C)c(NC(=O)Nc3cnc(-n4nccn4)c(Cl)c3)cnc2s1` [Compound 115, 1-(5-Chloro-6-(2H-1,2,3-triazol-2-yl)pyridin-3-yl)-3-(7-isopropyl-2-methylthiazolo[5,4-b]pyridin-6-yl)urea] are 1 to 50 nM, 1 to 100 nM and 26 to 100 nM.

Source of the values: patent publication US20190275012A9, “SUBSTITUTED THIAZOLO-PYRIDINE COMPOUNDS AS MALT1 INHIBITORS” (Lupin Limited, priority 2016, published 2019).
